In US20220193029A1, “BRYOSTATIN COMPOUNDS FOR ENHANCEMENT OF IMMUNOTHERAPY” (priority 2019, published 2022):

How the values were obtained:
[1] = tested on: PKC; test: cell-free PKC binding assay, isoform not given; design: species or system human
Protocol: Because a prerequisite for PKC pathway involvement is binding to PKC, compounds were initially evaluated for PKC affinity in a cell-free competitive binding assay with tritiated phorbol dibutyrate ([^3H]-PDBu). Assays were performed with representative members of both the conventional (PKCα) and novel (PKCδ) PKC families. Subsequently, compounds were assayed for PKC activation in living cells using an isoform translocation assay.
Assay PKC was prepared by dissolving a 4 μg aliquot of the indicated recombinant human PKC isoform (Invitrogen) into 11.6 mL of PKC binding assay buffer (this amount is sufficient for two assays). The diluted PKC was stored on ice for immediate use.
Triplicate data points were obtained for each analog concentration. For each data point, 280 μL of “Master Mix” Solution and 20 μL of analog compound at a specified concentration were added to a polypropylene tube. […] Maximal ^3H-PDBu binding was assessed in triplicate by substitution of the analog compound with 20 μL DMSO. The solutions were vortexed to mix, incubated at 37° C. for 10 min, and incubated on ice for at least 30 min prior to filtration. Using a Brandel Harvester, the assay contents from each polypropylene tube were vacuum-filtered through polyethylenimine-soaked filters, washing with rinsing buffer (3×) and drying first under vacuum for 5 min and then under ambient conditions for ≥2 h. The resulting filters had circular perforations for each data point, which were removed with forceps and placed in a scintillation vial. Scintillation vials were filled with Bio-Safe II scintillation fluid (5 mL) and measured for radioactivity using a Beckman LS 6000SC scintillation counter. Counts per minute (cpm) were averaged for each triplicate dilution. The data were plotted—cpm vs. log(concentration)—using Prism® by GraphPad Software and an IC50 was determined using that program's built-in one-site competition least squares regression function. Ki values were calculated using the equation: Ki=IC50/(1+([3H−PDBu]/Kd)). The Kd of ^3H-PDBu for PKC isoforms was measured separately via saturation binding experiments under identical conditions.

[2] = tested on: CD22 surface expression in JB cells; test: CD22 surface expression assay, AIDS-NHL cell line JB; settings: 1 nM or 10 nM, 48 hours
Protocol: (§1) AIDS-NHL cell lines were incubated in IF10 medium, consisting of IMDM medium (Life technologies) containing 10% fetal bovine serum (FBS, Omega Scientific), 100 units/mL of penicillin, and 100 μg/ml of streptomycin (Invitrogen). Cells were incubated at 37° C. in 5% CO2.
(§2) Cells were exposed to compound for the either 24 or 48 h before staining and flow cytometric analysis of receptor levels.
(§3) Cells in each well were washed with phosphate buffered saline (PBS) containing 2% FBS, then cells were centrifuged for 9 min at 233 xg and resuspended in 50 μL of a 1:1 dilution of phosphate buffered saline (PBS): Human AB serum (Sigma). […] Stained samples were stored at 4° C. Flow cytometry samples were analyzed using a FACSCelesta (BD Biosciences) flow cytometer and data were analyzed using FlowJo software (version 10).
(§4) Panel C: JB cells were incubated with 1 nM (left hand bars) or 10 nM (right hand bars) of compound for 48 hours. CD22 surface expression was then assayed by flow cytometry (n=6 biological replicates; data presented as mean values ±SE). Panel D: 2F7 cells were incubated with 1 nM (left hand bars) or 10 nM (right hand bars) of compound for 48 hours. CD22 surface expression was then assayed by flow cytometry (n=6 biological replicates; data presented as mean values ±SE).

[3] = tested on: CD22 surface expression in 2F7 cells; test: CD22 surface expression assay, AIDS-NHL cell line 2F7; settings: 1 nM or 10 nM, 48 hours
Protocol: as §1, §2, §3, §4

SMILES	binding affinity to PKC, in words [1]	upregulated CD22 surface expression [2]	upregulated CD22 surface expression [3]
CCCCCC#CC(=O)O[C@H]1/C(=C/C(=O)OC)C[C@H]2C[C@H]([C@@H](C)O)OC(=O)C[C@H](O)C[C@@H]3C[C@H](OC(C)=O)C(C)(C)[C@](O)(C[C@@H]4C[C@@](O)(CO)C[C@H](/C=C/C(C)(C)[C@]1(O)O2)O4)O3 [SUW203]	single-digit nanomolar affinity	–	–
C=CCOC(=O)/C=C1/C[C@H]2C[C@]3(O)O[C@H](C[C@@H](O)CC(=O)O[C@@H]([C@@H](C)O)C[C@@H]4C/C(=C\C(=O)OC)[C@H](OC(=O)/C=C/C=C/CCC)[C@@](O)(O4)C(C)(C)/C=C/[C@@H](C1)O2)C[C@H](OC(C)=O)C3(C)C [SUW229]	–	~2 fold	~2 fold
